Test results taken from US9512120B2, “Microbicidally active imidazopyridine derivatives” (Syngenta Participations AG, priority 2013, dated 2016).

Tests used:
[1] = system: Thanatephorus cucumeris (Rhizoctonia solani); test: Thanatephorus cucumeris (Rhizoctonia solani) / liquid culture (foot rot, damping-off); assay type: cell-based; conditions: PDB, 24° C., 3-4 days after application, read-out: control of Thanatephorus cucumeris (inhibition of growth, photometric)
Outline: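 Mycelial fragments in potato dextrose broth exposed to test compounds at 200 ppm (from DMSO solution), incubated at 24° C. Growth inhibition read photometrically 3-4 days after application.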

[2] = system: Phaeosphaeria nodorum (Septoria nodorum); test: Phaeosphaeria nodorum (Septoria nodorum) / wheat / leaf disc preventative (glume blotch); assay type: in vivo; conditions: Parastagonospora nodorum, foliar, wheat leaf segments cv Kanzler, inoculated 2 days after application, assessed 5-7 days after application, read-out: control of Phaeosphaeria nodorum (percent disease control compared to untreated)
Outline: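 Wheat leaf segments (cv Kanzler) on agar sprayed with compound at 200 ppm, inoculated with spores 2 days later. Incubated at 20° C., 75% relative humidity, 12/12 h light/dark; percent disease control versus untreated scored 5-7 days after application.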

[3] = system: Glomerella lagenarium (Colletotrichum lagenarium); test: Glomerella lagenarium (Colletotrichum lagenarium) / liquid culture (anthracnose); assay type: cell-based; conditions: Colletotrichum orbiculare, PDB, 24° C., 3-4 days after application, read-out: control of Glomerella lagenarium (inhibition of growth, photometric)
Outline: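 Cryopreserved conidia suspended in potato dextrose broth were added to compound in DMSO applied at 200 ppm. Plates incubated at 24° C; growth inhibition read photometrically 3-4 days after application.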

[4] = system: Botryotinia fuckeliana (Botrytis cinerea); test: Botryotinia fuckeliana (Botrytis cinerea) / liquid culture (gray mould); assay type: cell-based; conditions: Vogels broth, 24° C., 3-4 days after application, read-out: control of Botryotinia fuckeliana (inhibition of growth, photometric)
Outline: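 Botrytis cinerea conidia in Vogels broth were added to test compound applied from DMSO at 200 ppm. Incubation at 24 °C; growth inhibition read photometrically 3-4 days after application.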

[5] = system: Monographella nivalis (Microdochium nivale); test: Monographella nivalis (Microdochium nivale) / liquid culture (foot rot cereals); assay type: cell-based; conditions: PDB, 24° C., 4-5 days after application, read-out: control of Monographella nivalis (inhibition of growth, photometric)
Outline: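 Cryostored conidia in potato dextrose broth were added to test compound dispensed from DMSO at 200 ppm. Plates were kept at 24° C, and growth inhibition was read photometrically 4-5 days after application.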

[6] = system: Puccinia recondita f. sp. Tritici; test: Puccinia recondita f. sp. tritici / wheat / leaf disc preventative (brown rust); assay type: in vivo; conditions: foliar, wheat leaf segments cv Kanzler, inoculated 1 day after application, assessed 7-9 days after application, read-out: control of Puccinia recondita f. sp. Tritici (percent disease control compared to untreated)
Outline: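 Leaf segments of wheat cv Kanzler on agar were sprayed with formulated compound at 200 ppm and inoculated with spores 1 day later. Incubation was at 19° C, 75% relative humidity and 12/12 h light/dark. Activity was scored 7-9 days after application as percent disease control versus untreated.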

Pyrenophora teres = Pyrenophora teres / barley / leaf disc preventative (net blotch); assay type: in vivo; conditions: foliar, barley leaf segments cv Hasso, inoculated two days after application, assessed 5-7 days after application, read-out: control of Pyrenophora teres (disease control compared to untreated)
Outline: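 Barley cv Hasso leaf segments on agar sprayed with compound at 200 ppm, inoculated with spores two days later. Kept at 20 °C, 65% RH, 12/12 h light; disease control versus untreated scored 5-7 days after application.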

Sclerotinia sclerotiorum = Sclerotinia sclerotiorum liquid culture (cottony rot / white mold); assay type: cell-based; conditions: PDB, 24° C., 3-4 days after application, read-out: control of Sclerotinia sclerotiorum (inhibition of growth, photometric)
Outline: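 Mycelia fragments of Sclerotinia sclerotiorum in potato dextrose broth were added to compound in DMSO. Cultures incubated at 24° C; growth inhibition determined photometrically 3-4 days after application.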

[7] = system: Mycosphaerella graminicola (Septoria tritici); test: Mycosphaerella graminicola (Septoria tritici) / liquid culture (Septoria blotch); assay type: cell-based; conditions: Zymoseptoria tritici, PDB, 24° C., 4-5 days after application, read-out: control of Mycosphaerella graminicola (inhibition of growth, photometric)
Outline: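 Cryo-stored conidia in potato dextrose broth were added to compound in DMSO at 200 ppm in microtiter plates. Plates were incubated at 24 °C and growth inhibition was measured photometrically 4–5 days after application.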

Gaeumannomyces graminis = Gaeumannomyces graminis / liquid culture (take-all of cereals); assay type: cell-based; conditions: PDB, 24° C., 4-5 days after application, read-out: control of Gaeumannomyces graminis (inhibition of growth, photometric)
Outline: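 Mycelial fragments in potato dextrose broth were exposed to compound from DMSO at 200 ppm in microtiter plates. Incubation at 24 °C; growth inhibition read photometrically 4-5 days after application.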

Fusarium culmorum = test: microbe, parasite or virus in culture; assay type: cell-based; conditions: read-out: control of Fusarium culmorum (inhibition of growth, photometric)
Pythium ultimum = Pythium ultimum / liquid culture (seedling damping off); assay type: cell-based; conditions: Globisporangium ultimum, potato dextrose broth, 24° C., 2-3 days after application, read-out: control of Pythium ultimum (inhibition of growth, photometric)
Procedure: Pythium ultimum/Liquid Culture (Seedling Damping Off) Mycelia fragments and oospores of a newly grown liquid culture of the fungus were directly mixed into nutrient broth (potato dextrose broth). After placing a DMSO solution of test compound into a 96-well format microtiter plate at an application rate of 200 ppm, the nutrient broth containing the fungal mycelia/spore mixture was added. The test plates were incubated at 24° C. and the inhibition of growth was determined photometrically 2-3 days after application.

[8] = system: Blumeria graminis f. Sp. Tritici (Erysiphe graminis f. Sp. Tritici); test: Blumeria graminis f. sp. tritici / wheat / leaf disc preventative (powdery mildew on wheat); assay type: in vivo; conditions: foliar, wheat leaf segments cv. Kanzler, inoculated 1 day after application, assessed 6-8 days after application, read-out: control of Blumeria graminis (percent disease control compared to untreated)
Procedure: Blumeria graminis f. Sp. Tritici (Erysiphe graminis f. Sp. Tritici)/Wheat/Leaf Disc Preventative (Powdery Mildew on Wheat):
Wheat leaf segments cv. Kanzler were placed on agar in a 24-well plate and sprayed with the formulated test compound diluted in water at an application rate of 200 ppm. The leaf disks were inoculated by shaking powdery mildew infected plants above the test plates 1 day after application. The inoculated leaf disks were incubated at 20° C. and 60% relative humidity under a light regime of 24 h darkness followed by 12 h/12 h (dark/light) in a climate chamber and the activity of a compound was assessed as percent disease control compared to untreated when an appropriate level of disease damage appears on untreated check leaf segments (6-8 days after application). The following compounds gave at least 80% control of Blumeria graminis at 200 ppm when compared to untreated control leaf disks under the same conditions, which show extensive disease development: 2, 13, 23, 50, 59, 61, 67, 75, 85, 86, 89, 90, 93, 102, 103, 107, 134, 136, 137, 138, 139, 141, 145, 151, 153, 154, 163, 173, 174

[9] = system: Mycosphaerella arachidis (Cercospora arachidicola); test: Mycosphaerella arachidis (Cercospora arachidicola) / liquid culture (early leaf spot); assay type: cell-based; conditions: PDB, 24° C., 4-5 days after application, read-out: control of Mycosphaerella arachidis (inhibition of growth, photometric)
Outline: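 Conidia suspended in potato dextrose broth and added to test compound from DMSO solution at 200 ppm. Incubated at 24 °C; growth inhibition read photometrically 4-5 days after application.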

Structure (SMILES)	inhibition at 20 ppm [1] [%]	pest or weed control at 200 ppm [2] [%]	inhibition at 20 ppm [3] [%]	inhibition at 20 ppm [4] [%]	inhibition at 20 ppm [5] [%]	pest or weed control at 200 ppm [6] [%]	pest or weed control at 200 ppm (Pyrenophora teres) [%]	inhibition at 20 ppm (Sclerotinia sclerotiorum) [%]	inhibition at 20 ppm [7] [%]	inhibition at 20 ppm (Gaeumannomyces graminis) [%]	inhibition at 20 ppm (Fusarium culmorum) [%]	inhibition at 20 ppm (Pythium ultimum) [%]	pest or weed control at 200 ppm [8] [%]	inhibition at 20 ppm [9] [%]	melting point [°C]
CCn1c(-n2ncnc2N)nc2cncc(-c3cc(Cl)ccc3Cl)c21 [Compound 88, 2-[7-(2,5-dichlorophenyl)-1-ethylimidazo[4,5-c]pyridin-2-yl]-1,2,4-triazol-3-amine]	≥ 80	≥ 80	≥ 80	≥ 80	≥ 80	≥ 80	≥ 80	≥ 80	≥ 80	≥ 80	≥ 80				
CCn1c(-n2ncnc2N)nc2cncc(-c3ccc(OC)nc3)c21 [Compound 59, 2-[1-ethyl-7-(6-methoxypyridin-3-yl)imidazo[4,5-c]pyridin-2-yl]-1,2,4-triazol-3-amine]	≥ 80	≥ 80	≥ 80	≥ 80		≥ 80	≥ 80		≥ 80	≥ 80		≥ 80	≥ 80		
CCCCCCO/N=C(/C)c1cncc2nc(-n3ncnc3N)n(CC)c12 [Compound 147]	≥ 80	≥ 80	≥ 80	≥ 80	≥ 80	≥ 80	≥ 80	≥ 80	≥ 80		≥ 80			≥ 80	
C=C(OCC)c1cncc2nc(-n3ncnc3N)n(CC)c12 [Compound 74, 2-[7-(1-ethoxyethenyl)-1-ethylimidazo[4,5-c]pyridin-2-yl]-1,2,4-triazol-3-amine]	≥ 80	≥ 80	≥ 80	≥ 80	≥ 80	≥ 80	≥ 80	≥ 80	≥ 80	≥ 80	≥ 80			≥ 80	193 to 195
CCn1c(-n2ncnc2N)nc2cncc(-c3ccc(Cl)c(Cl)c3F)c21 [Compound 100, 2-[7-(3,4-dichloro-2-fluorophenyl)-1-ethylimidazo[4,5-c]pyridin-2-yl]-1,2,4-triazol-3-amine]	≥ 80	≥ 80	≥ 80	≥ 80	≥ 80	≥ 80	≥ 80	≥ 80	≥ 80	≥ 80	≥ 80				
